Values belong to the molecule of their own block, whether it stands above or below them.
Experiments:
[1] = tested on: SKOV-3; assay: In vitro cytotoxic activity (Cell Titer Glo); format: cell-based, human; details: SKOV-3, 3 to 4 days; read-out: In vitro potency (EC50 in pM)
Experimental: A panel of human cancer cell lines expressing various levels of HER2 was used to evaluate the cytotoxic activity of bispecific ADC (Table 5 in Example 1). Briefly, cells were harvested, resuspended, and plated in serum-containing culture media at a density of 5,000 to 20,000 per well (depending on the growth kinetics of each cell line) of 96-well plates in a volume of 100 μL. A 2× concentration of each dose of antibody or ADC to be tested was prepared by diluting the test articles in culture medium. One hundred microliters of each test article was added to cells in triplicate such that the final dose curve ranged from 5 nM down to 0.08 pM in a stepwise 1:4 serial dilution series. The treated cells were incubated at 37° C./5% CO2 for 3 to 4 days, depending on the growth kinetics of each particular cell line. Cell viability was determined using Cell Titer Glo according to manufacturer's instructions. Data are analyzed by the GraphPad Prism software and presented as percent growth inhibition relative to the untreated control. EC50 values were determined using Sigmoidal non-linear regression analysis with GraphPad Prism software and were summarized in Table 6.

[2] = tested on: SKOV-3; assay: Disruption of intracellular microtubule network (immunofluorescence); format: cell-based, human; details: SKOV-3 (T-DM1 eligible), 5 nM ADC overnight
Experimental: (§1) On day 1, cells were harvested by trypsinization, resuspended in culture media, and then seeded in 8-well chamber slides at a density of 6×10^4 cells/well. Slides were incubated at 37° C./5% CO2 overnight. On day 2, media were aspirated to remove any unattached cells and then fresh media containing 5 nM ADC to be tested were added to the cells. Slides were incubated at 37° C./5% CO2 overnight. On day 3, each chamber was washed twice with 1×PBS. Cells were then fixed with 4% PFA for 20 min. At the end of fixation, the chambers were removed and slides were stained following standard immunofluorescence procedures. Briefly, cells were permeabilized using Triton X-100 and washed with 1×PBS containing Tween-20. Rabbit anti-human α-Tubulin Alexa-Fluor 488 (clone 11H10) was diluted by 1:100 in DAKO antibody diluent and added to the slides. After incubation at room temperature for 1 hour, slides were coversliped with ProLong® Gold Antifade Reagent containing DAPI. Stained cells were visualized by the Leica SP5 Confocal Microscope and the Leica Application Suite Advanced Fluorescence software suite.

[3] = tested on: RT-112; assay: as above; format: cell-based, human; details: RT-112 (T-DM1 ineligible), 5 nM ADC overnight
Experimental: as §1

[4] = tested on: T47D; assay: In vitro cytotoxic activity (Cell Titer Glo); format: cell-based, human; details: 3 to 4 days
Experimental: Briefly, cells were harvested, resuspended, and plated in serum-containing culture media at a density of 5,000 to 20,000 per well (depending on the growth kinetics of each cell line) of 96-well plates in a volume of 100 μL. A 2× concentration of each dose of antibody or ADC to be tested was prepared by diluting the test articles in culture medium. One hundred microliters of each test article was added to cells in triplicate such that the final dose curve ranged from 5 nM down to 0.08 pM in a stepwise 1:4 serial dilution series. The treated cells were incubated at 37° C./5% CO2 for 3 to 4 days, depending on the growth kinetics of each particular cell line. Cell viability was determined using Cell Titer Glo according to manufacturer's instructions. Data are analyzed by the GraphPad Prism software and presented as percent growth inhibition relative to the untreated control.

[5] = tested on: MDA-MB-361 cells; format: cell-based, human; details: MDA-MB-361, 10 pM, relative to untreated control
Experimental: MDA-MB-361 cells were cultured under standard tissue culture conditions in Leibovitz's L-15 medium supplemented with 20% FBS. Cells were harvested by trypsinization, washed twice with PBS, and resuspended to 30,000 cells per mL in stem cell medium (SCM: DMEM/F12 supplemented with 20 ng/mL EGF, 10 ng/mL bFGF, 5 mg/mL insulin, 0.4% BSA and 1% knock-out serum replacement). […] At the end of treatment, the primary spheres were harvested, dissociated using 0.05% trypsin and resuspended at a density of 30,000 cells/mL in SCM containing the same antibody treatment as the primary sphere culture. Cells were then plated in triplicate into 96-well ultra-low attachment plates and incubated for 4 days. Sphere cell viability was determined using Cell Titer Glo according to manufacturer's instructions. Data are presented as fold of CSC sphere formation relative to the untreated control.

[6] = tested on: T-DM1 resistant NCI-N87 tumor model; assay: In vivo tumor model with acquired T-DM1 resistance; parameters: species or system mice; details: weekly intravenous dosing, 3 mg/kg (pertuzumab 10 mg/kg), total of 4 doses
Experimental: To establish an in vivo tumor model with acquired T-DM1 resistance, the T-DM1-resistant NCI-N87 cells were injected subcutaneously into the immune-deficient mice. The tumor-bearing mice were treated with 3 mg/kg of T-DM1. It appeared that the in vitro T-DM1 resistance was not fully translated into the in vivo resistance, reflected by considerable variations in tumor growth among animals. Thus, mice with large refractory tumors (˜1000 mm^3 in volume) were selected and the tumor tissue fragments were passaged to new mice until the tumors grew consistently in the presence of weekly treatment of 3 mg/kg T-DM1.

[7] = biological target: T1, chimeric human/mouse Her2 variants (Homo sapiens, UniProt P04626, A221T/F173L/G201D/G222S/H174R/H193P/I172V/I184M/L181P/L183D/M198T/P230R/R203H/R217G/S196A/S202N/S209P/S214I/T182V/V219I); assay: ProteOn SPR binding of 39S to captured chimeric Her2 variants; details: variant KO_146-208
T1 construct: His tag; made in house; host or cells: HEK293F (transient, pEBNA vector; captured from culture supernatant)
Source text: (§2) The domain II of human HER2 was identified as the epitope of 39S by swapping domains between human and mouse Her2 molecules. Mouse Her2 was chosen as the chimeric partner because it is not recognized by 39S, but shares 85% sequence identity with human HER2. Chimeric variants targeting each domain of HER2 were constructed (see method below) as listed in Table 4, including four knock-out (KO, loss-of-function) variants replacing domain I, II, III, or IV of human HER2 with the mouse counterpart, and one knock-in (KI, gain-of-function) variant grafting the domain II of human HER2 into mouse Her2 molecule. The chimeric variant nomenclature denotes types of variants (KO/KI) and the number of domains swapped. The binding profiles of 39S to these variants were characterized using a SPR based instrument ProteOn™ by capturing variants on sensor surfaces using anti-human and mouse Her2 polyclonal antibodies (see method below). The expression of the variants was monitored by anti-His polyclonal antibody using ProteOn™. […] Therefore, the domain II (amino acid 146-310) of human HER2 was identified as the epitope-containing domain of 39S by both loss-of-function and gain-of-function variants.
(§3) We further refined the epitope of 39S and identified the region of amino acid 192-208 in domain II as the critical epitope region. […] Seven knock-out variants were generated by replacing each of the following human HER2 regions with the mouse counterparts, including amino acids 146-208, 159-162, 171-187, 192-208, 250-261, 276-285, and 295-296. In addition, one knock-in variant was constructed by grafting the region of amino acid 192-208 of human HER2 to the mouse molecule. The variant nomenclature denotes types of variants (KO/KI) and the swapped regions with amino acid numbering. All variants had detectable expression levels by anti-His polyclonal antibody (Table 4). […] The binding of 39S was not impacted when substituting any other regions of human HER2 with mouse amino acids (KO_159-162, KO_171-187, KO_250-261, KO_276-285, and KO_295-296). […] Taken together, the region of amino acid 192-208 in domain II of human HER2 was identified as the functional epitope of 39S.
(§4) The variant nomenclature denotes types of variants (KO/KI) and the swapped regions with amino acid numbering. Amino acid positions were denoted basing on the numbering scheme of mature human HER2 sequences without its signal peptide. The expression levels of all variants were monitored by an anti-His polyclonal antibody. The binding profiles of 39S to these variants were characterized using a SPR based instrument ProteOn™ by capturing variants on sensor surfaces using anti-human and mouse Her2 polyclonal antibodies.
(§5) Construction and expression of chimeric human/mouse Her2 variants were constructed as follows. Briefly, DNAs encoding chimeric human/mouse Her2 variants with a His tag were assembled and amplified by overlapping PCR using human and mouse Her2 plasmids as templates (MedImmune). The assembled DNAs were cloned into the mammalian expression vector pEBNA (MedImmune). HEK293F cells were then transiently transfected with the various constructs using 293fectin and standard protocols according to the manufacturer's instructions (Invitrogen).
(§6) The binding characteristics of 39S to chimeric human/mouse variants were studied using a ProteOn™ XPR36 instrument (BioRad). Standard amine coupling was used to immobilize an anti-human or mouse Her2 polyclonal antibody (R&D System) in 10 mM sodium acetate (pH 5.0) to the surface of a GLC biosensor chip at ˜5000 resonance units (RU) for each channel. The chimeric proteins in cell culture supernatant were injected and captured by anti-human or mouse polyclonal antibodies onto the GLC surface with a ˜200RU response. Anti-HER2 mAb 39S was diluted in phosphate-buffered saline (PBS) (pH 7.4) with 0.005% Tween-20 from 10 nM to 0.625 nM (1:2 dilution), and injected at 100 μL/min for 180 sec with a 600-second dissociation time. […]

[8] = biological target: T2, chimeric human/mouse Her2 variants (Homo sapiens, UniProt P04626, A221T/G222S/P230R/R217G/S214I/V219I); assay: as above; details: variant KO_192-208
T2 construct: His tag; made in house; host or cells: HEK293F (transient, pEBNA vector; captured from culture supernatant)
Source text: as §2, §3, §4, §5, §6

[9] = biological target: T3, chimeric human/mouse Her2 variants (Homo sapiens, UniProt P04626, H318N/L317P); assay: as above; details: variant KO_295-296
T3 construct: His tag; made in house; host or cells: HEK293F (transient, pEBNA vector; captured from culture supernatant)
Source text: as §2, §3, §4, §5, §6

[10] = biological target: T4, chimeric human/mouse Her2 variants (Homo sapiens, UniProt P04626, A298T/D307E); assay: as above; details: variant KO_276-285
T4 construct: His tag; made in house; host or cells: HEK293F (transient, pEBNA vector; captured from culture supernatant)
Source text: as §2, §3, §4, §5, §6

Molecule: T-DM1 [reference compound]
EC50 [1]: 116 pM | disruption of intracellular microtubule networks [2]: capable of disrupting microtubule networks | disruption of intracellular microtubule networks [3]: inactive | In vitro potency (EC50 in pM) [4]: Inactive | inhibition of CSC sphere formation [5]: no activity | in vivo activity (tumor growth) [6]: resistant

The binding affinity of 39S (KD) [7]: did not bind and No | The binding affinity of 39S (KD) [8]: did not bind and No | The binding affinity of 39S (KD) [9]: not impacted | The binding affinity of 39S (KD) [10]: not impacted
B1: 39S: lead optimized monoclonal antibody derived from the 1.39.1 antibody; VH SEQ ID NO:15, VL SEQ ID NO:16 (antibody, V domains shown)
VH: EVQLVESGGGLVKPGGSLRLSCAASGFTFSSYSMSWVRQAPGKGLEWVSSISSSSSYIYYADSVKGRFTISRDNAKNSLYLQMNSLRAEDTAVYYCARGGDAYNYYYFDYWGQGTLVTVSS
VL: DIVMTQTPLSLSVTPGQPASISCKSSQSVFFRSNNKNILAWYLQKPGQPPQLLIYWASSRESGVPDRFSGSGSGTDFTLKISRVEAEDVGVYYCQQYFGSPFTFGPGTKVDIK
